In patent publication US20260256821A1, “USE OF GINSENOSIDE IN COMBINATION WITH PD-1 BLOCKER IN PREPARING MEDICAMENT AGAINST HEAD AND NECK SQUAMOUS CELL CARCINOMA” (CHINESE ACADEMY OF MEDICAL SCIENCES INSTITUTE OF MEDICINAL …, priority 2022, published 2026):

Assays:
[1] = Rh2 as metabolite relative to ginsenoside Rg3; cited from earlier work
[2] = system: tumor-infiltrating lymphocytes; assay: Tumor-infiltrating lymphocyte levels in mice tumor tissue (flow cytometry); assay type: in vivo; settings: for number/abundance of T cells infiltrating into tumors: FIGS. 7A and 7D
Method: (§1) The mice were randomly divided into four groups: model control group, ginsenoside Rh2 group (15 mg/kg), anti-PD-1 antibody group (200 μg/mice), and ginsenoside Rh2 in combination with anti-PD-1 antibody group. The administration time and volume were as follows: ginsenoside Rh2 was administered intragastrically 5 days before vaccination; anti-PD-1 antibody was administered intraperitoneally on days 3, 6, 9, and 12 after vaccination.
(§2) SCC-7 cells were resuscitated and expanded in large quantities. Trypsin was added to digest and the cells were collected. After counted, the cells were re-suspended in PBS solution and the cell concentration was adjusted, and the mice were inoculated with 5*10^6 cells/0.2 mL in the right armpit.
After the experiment, the mice's eyeballs were removed to collect blood, and the tumor tissue was peeled off. The tumor tissue was divided into two parts, one part was quickly frozen in liquid nitrogen and then transferred to a −80° C. refrigerator for storage, and the other part was stored in PBS solution for flow cytometry detection.
Mice tumor samples were cut into pieces with sterile scissors, ground gently with a syringe stopper, and filtered through a 40 μm filter to prepare a single cell suspension. The cell suspension was transferred to a new centrifuge tube, PBS solution was added, the supernatant was discarded after centrifugation, and the remaining was washed with PBS and centrifuged again. PBS was added to re-suspended, 100 μL of resuspending solution was placed into the flow tube, the corresponding flow cytometry antibody was added for incubating and staining for 20 minutes, and then on-machine detection was performed.

[3] = system: SCC-7 cells; assay: Tumor growth in head and neck squamous cell carcinoma-bearing mice; assay type: in vivo; settings: FIG. 6A; alone, versus model control; Rh2 15 mg/kg intragastric; anti-PD-1 antibody 200 μg/mice intraperitoneal
Method: SPF grade C57 mice, 6 weeks old, female, were purchased from Beijing Charles River Laboratories Animal Company. […] OF MEDICINAL PLANT DEVELOPMENT. The experimental facilities comply with barrier environmental standards, with a temperature of 20° C. to 26° C., a relative humidity of 40% to 70%, and light and dark alternating for 12 hours each. Mice were raised in standard boxes, with 5 mice per cage. During the raising process, the animals were allowed to eat and move freely.
as §1, §2
Throughout the experiment, the tumor volume of the mice was measured twice weekly.
After the experiment, the mice's eyeballs were removed to collect blood, and the tumor tissue was peeled off. […]

[4] = system: Cal-27 cells; assay: Killing effect of lymphocytes on tumor cells in Cal-27/PBMC co-culture (Incucyte); assay type: cell-based; settings: compared with PBMC control group, anti-PD-1 antibody 5 μg/mL; for number of Cal-27 cells / killing effect of lymphocytes on tumor cells: FIG. 3, Rh2 1, 5, 10 μM, effect-to-target ratio 5:1; for killing effect of lymphocytes on tumor cells: FIG. 5, Rg3 1, 5, 10 μM
Method: Cal-27 cells in good growth state were digested and centrifuged, appropriate amount of cell suspension was taken and placed in a new centrifuge tube, incubated with the target red label reagent for 20 min, washed and centrifuged with serum-free culture solution, then plated, and placed in an incubator for overnight cultivation to make them adhere to the wall. PBMC stimulated by PHA was added into the well plate in ratios of 1:1, 5:1, 10:1 and 20:1, and Incucyte real-time dynamic cell imaging system was used to observe the killing effect of lymphocytes on tumor cells under different target ratio conditions.
Cal-27 cells in good growth statu were digested and centrifuged, incubated with red target labeling reagent for 20 min, and washed with serum-free culture solution. After the cells were adherence to the wall overnight, the PBMC stimulated by PHA was added to the well plate according to the effect-to-target ratio of 5:1 and co-cultured with Cal-27 cells. Ginsenoside Rh2 or ginsenoside Rg3 of medicament solution with different concentrations were prepared, and they and 5 μg/mL human anti-PD-1 antibody were added into the well plate for incubation, and were divided into control group, ginsenoside alone group, anti-PD-1 antibody alone group, ginsenoside and anti-PD-1 antibody combination group. The culture plates were placed into Incucyte real-time dynamic cell imaging analysis system for real-time monitoring.

[5] = system: Cal-27 cells; assay: Proliferation of tongue squamous cell carcinoma Cal-27 cells (CCK-8); assay type: cell-based; settings: 48 h treatment, CCK-8, FIG. 1
Method: Cells in good growth state were counted and inoculated into 96-well plates with 100 μL per well according to a certain cell density. After the cells adherence to the wall overnight, a medicament solution was added to intervene the cells. After 48 h of medicament treatment, CCK-8 reagent was added, 10 μL per well. After incubation for 2 h, the culture plates were taken out and detected at 450 nm wavelength of the enzymograph.

## CC(C)=CCC[C@](C)(O)[C@H]1CC[C@]2(C)[C@@H]1[C@H](O)C[C@@H]1[C@@]3(C)CC[C@H](O[C@@H]4O[C@H](CO)[C@@H](O)[C@H](O)[C@H]4O)C(C)(C)[C@@H]3CC[C@]12C [ginsenoside Rh2]
[1]
  content increased: 50 times
  oral bioavailability increased: 5 times
[2]
  number/abundance of T cells infiltrating into tumors: neither ginsenoside Rh2 nor anti-PD-1 antibody had a significant effect
[2]; FIGS. 7C and 7F, P<0.05
  proportion of B cell activation: significantly increase the proportion of B cell activation
[3]
  tumor volume: significantly reduce the tumor size
[4]
  number of Cal-27 cells / killing effect of lymphocytes on tumor cells: can reduce the number of Cal-27 cells
[5]
  inhibitory effect on Cal-27 cells: most significant inhibitory effect

## CC(C)=CCC[C@](C)(O[C@@H]1O[C@H](CO[C@@H]2O[C@@H](CO)[C@H](O)[C@H]2O)[C@@H](O)[C@H](O)[C@H]1O)[C@H]1CC[C@]2(C)[C@@H]1[C@H](O)C[C@@H]1[C@@]3(C)CC[C@H](O[C@@H]4O[C@H](CO)[C@@H](O)[C@H](O)[C@H]4O[C@@H]4O[C@H](CO)[C@@H](O)[C@H](O)[C@H]4O)C(C)(C)[C@@H]3CC[C@]12C [ginsenoside Rc]
[5]
  inhibitory effect on Cal-27 cells: concentration-dependent inhibitory effects
[5]; Homo sapiens, CAL-27
  IC50: ~100 µM

## CC(C)=CCC[C@](C)(O[C@@H]1O[C@H](CO)[C@@H](O)[C@H](O)[C@H]1O)[C@H]1CC[C@]2(C)[C@@H]1[C@H](O)C[C@@H]1[C@@]3(C)CC[C@H](O)C(C)(C)[C@@H]3[C@@H](O[C@@H]3O[C@H](CO)[C@@H](O)[C@H](O)[C@H]3O[C@@H]3O[C@@H](C)[C@H](O)[C@@H](O)[C@H]3O)C[C@]12C [ginsenoside Re]
[5]
  inhibitory effect on Cal-27 cells: concentration-dependent inhibitory effects
[5]; Homo sapiens, CAL-27
  IC50: ~100 µM

## CC(C)=CCC[C@](C)(O[C@@H]1O[C@H](CO)[C@@H](O)[C@H](O)[C@H]1O)[C@H]1CC[C@]2(C)[C@@H]1[C@H](O)C[C@@H]1[C@@]3(C)CC[C@H](O)C(C)(C)[C@@H]3[C@@H](O[C@@H]3O[C@H](CO)[C@@H](O)[C@H](O)[C@H]3O)C[C@]12C [ginsenoside Rg1]
[5]
  IC50: ~100 µM
  inhibitory effect on Cal-27 cells: concentration-dependent inhibitory effects

## CC(C)=CCC[C@](C)(O[C@@H]1O[C@H](CO[C@@H]2OC[C@@H](O)[C@H](O)[C@H]2O)[C@@H](O)[C@H](O)[C@H]1O)[C@H]1CC[C@]2(C)[C@@H]1[C@H](O)C[C@@H]1[C@@]3(C)CC[C@H](O[C@@H]4O[C@H](CO)[C@@H](O)[C@H](O)[C@H]4O[C@@H]4O[C@H](CO)[C@@H](O)[C@H](O)[C@H]4O)C(C)(C)[C@@H]3CC[C@]12C [ginsenoside Rb3]
[5]
  IC50: ~100 µM
  inhibitory effect on Cal-27 cells: concentration-dependent inhibitory effects

## CC(C)=CCC[C@](C)(O)[C@H]1CC[C@]2(C)[C@@H]1[C@H](O)C[C@@H]1[C@@]3(C)CC[C@H](O)C(C)(C)[C@@H]3[C@@H](O[C@@H]3O[C@H](CO)[C@@H](O)[C@H](O)[C@H]3O)C[C@]12C [ginsenoside Rh1]
[5]
  IC50: ~100 µM
  inhibitory effect on Cal-27 cells: concentration-dependent inhibitory effects

## CC(C)=CCC[C@](C)(O[C@@H]1O[C@H](CO)[C@@H](O)[C@H](O)[C@H]1O)[C@H]1CC[C@]2(C)[C@@H]1[C@H](O)C[C@@H]1[C@@]3(C)CC[C@H](O)C(C)(C)[C@@H]3CC[C@]12C [ginsenoside CK]
[5]
  inhibitory effect on Cal-27 cells: most significant inhibitory effect

## CC(C)=CCC[C@](C)(O[C@@H]1O[C@H](CO[C@@H]2O[C@H](CO)[C@@H](O)[C@H](O)[C@H]2O)[C@@H](O)[C@H](O)[C@H]1O)[C@H]1CC[C@]2(C)[C@@H]1[C@H](O)C[C@@H]1[C@@]3(C)CC[C@H](O[C@@H]4O[C@H](CO)[C@@H](O)[C@H](O)[C@H]4O[C@@H]4O[C@H](CO)[C@@H](O)[C@H](O)[C@H]4O)C(C)(C)[C@@H]3CC[C@]12C [ginsenoside Rb1]
[5]
  IC50: ~100 µM
  inhibitory effect on Cal-27 cells: concentration-dependent inhibitory effects

## CC(C)=CCC[C@](C)(O)[C@H]1CC[C@]2(C)[C@@H]1[C@H](O)C[C@@H]1[C@@]3(C)CC[C@H](O[C@@H]4O[C@H](CO)[C@@H](O)[C@H](O)[C@H]4O[C@@H]4O[C@H](CO)[C@@H](O)[C@H](O)[C@H]4O)C(C)(C)[C@@H]3CC[C@]12C [ginsenoside Rg3]
[4]
  killing effect of lymphocytes on tumor cells: can promote the killing effect of lymphocytes
[5]
  inhibitory effect on Cal-27 cells: most significant inhibitory effect

## pembrolizumab [anti-PD-1 antibody]
[2]
  number/abundance of T cells infiltrating into tumors: neither ginsenoside Rh2 nor anti-PD-1 antibody had a significant effect
[2]; FIGS. 7B and 7E, P<0.05
  infiltration level of CD8+ T cells in tumors: increased significantly
[3]
  tumor volume: decreased slightly
[4]
  number of Cal-27 cells / killing effect of lymphocytes on tumor cells: can also significantly promote the killing effect of lymphocytes
  killing effect of lymphocytes on tumor cells: can significantly promote the killing effect of lymphocytes
